Measurements: patent US10059667B2, “Antidiabetic compounds” (MERCK SHARP & DOHME CORP., priority 2014, dated 2018)

Tests used:
[1] = target: T1, Human GPR40 (Homo sapiens (Human), UniProt O14842); assay: Inositol Phosphate Turnover (IP1) Assay 1, HEK cells stably expressing human GPR40, 3H-inositol SPA; format: cell-based; details: HEK cells stably expressing human GPR40, 96-well
Method: (§1) Human and mouse GPR40 stable cell-lines were generated in CHO cells stably expressing NFAT BLA (Beta-lactamase). A human GPR40 stable cell-line was generated in HEK cells stably expressing the aequorin expressing reporter. The expression plasmids were transfected using lipofectamine (Life Technologies) following manufacturer's instructions. Stable cell-lines were generated following drug selection.
The assay was performed in 96-well format. HEK cells stably expressing human GPR40 were plated to be 60-80% confluent within 72 h. After 72 h, the plates were aspirated and the cells washed with inositol-free DMEM (ICN). The wash media was replaced with 150 μL of 3H-inositol labeling media (inositol-free media containing 0.4% human albumin or 0.4% mouse albumin, 1× pen/strep antibiotics, glutamine, 25 mM HEPES to which was added 3H-myo-inositol NEN #NET114A 1 mCi/mL, 25 Ci/mmol diluted 1:150 in loading media with a final specific radioactivity of 1 μCi/150 μL). Alternatively, the human and mouse albumin can be added after the overnight labeling step before the addition of LiCl.
The assay was typically run the next day after 18 h labeling. On the day of the assay, 5 μL of 300 mM LiCl was added to all wells and incubated at 37 degrees for 20 min. 0.75 μL of each compound was added and incubated with the cells for 60 min at 37 degrees. The media was then aspirated off and the assay terminated with the addition of 60 μL 10 mM formic acid. The cells were lysed for 60 min at room temperature. 15-30 μL of lysate was mixed with 70 μL/1 mg YSi SPA beads (Amersham) in clear bottom Isoplates. The plates were shaken for 2 h at room temperature. Beads were allowed to settle and the plates were counted in the Wallac Microbeta.

[2] = target: T1, Human GPR40; assay: FLIPR assay, agonist-induced calcium mobilization in GPR40/CHO NFAT BLA cells; format: cell-based
Method: as §1
FLIPR (Fluorimetric Imaging Plate Reader, Molecular Devices) assays were performed to measure agonist-induced calcium mobilization of the stable clones. For the FLIPR assay, one day before assay, GPR40/CHO NFAT BLA cells were seeded into black-wall-clear-bottom 384-well plates (Costar) at 1.4×10e4 cells/20 μL medium/well. The cells were incubated with 20 μl/well of the assay buffer (HBSS, 0.1% BSA, 20 mM HEPES, 2.5 mM probenecid, pH 7.4) containing 8 μM fluo-4, AM, 0.08% pluronic acid at room temperature for 100 minutes. Fluorescence output was measured using FLIPR. Compounds were dissolved in DMSO and diluted to desired concentrations with assay buffer. 13.3 μL/well of compound solution was added.

T1 sequence (O14842 whole entry): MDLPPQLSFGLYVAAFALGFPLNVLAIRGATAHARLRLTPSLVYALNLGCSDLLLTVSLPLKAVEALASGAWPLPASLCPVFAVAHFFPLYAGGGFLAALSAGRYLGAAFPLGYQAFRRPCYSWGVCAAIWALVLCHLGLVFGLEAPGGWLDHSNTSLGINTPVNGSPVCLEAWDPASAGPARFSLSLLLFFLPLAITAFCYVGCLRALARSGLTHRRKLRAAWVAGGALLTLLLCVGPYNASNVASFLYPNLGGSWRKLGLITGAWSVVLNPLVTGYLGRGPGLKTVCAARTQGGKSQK

Row | EC50 [1] | EC50 [2] | SMILES
1 | 4570 nM | 0.389 µM | O=C(O)C[C@H](c1cccc(OCC2CN(Cc3c(F)cccc3C(F)(F)F)C2)c1)C1CC1 [Example 53]
2 | 631 nM | 0.079 µM | C[C@H](C(=O)O)[C@H](c1cccc(OCC2CN(c3cc(C(F)(F)F)ccn3)C2)c1)C1CC1 [Example 16, (2S,3R)-3-Cyclopropyl-2-methyl-3-(3-((1-(4-(trifluoromethyl)pyridin-2-yl)azetidin-3-yl)methoxy)phenyl)propanoic acid]
3 | 50 nM |  | COc1ccc(C)cc1OC1CC(COc2cccc([C@H](C3CC3)[C@H](C)C(=O)O)c2)C1 (single isomer, unassigned) [Example 117]
4 | 150 nM |  | C[C@H](C(=O)O)[C@H](c1cccc(OCC2CC(Oc3ccccc3-c3ccccc3)C2)c1)C1CC1 (some centres unmarked) [Example 132]
5 | 324 nM |  | C[C@H](C(=O)O)[C@H](c1cccc(OCC2CC(Oc3cccc(O)c3)C2)c1)C1CC1 (single isomer, unassigned) [Example 123]
6 | 110 nM |  | C[C@H](C(=O)O)[C@H](c1cccc(OCC2CC(Oc3ccccc3F)C2)c1)C1CC1 (some centres unmarked) [Example 94]
7 | 1480 nM |  | C[C@H](C(=O)O)[C@H](c1cccc(OCC2CC(Oc3ccn[nH]3)C2)c1)C1CC1 (single isomer, unassigned) [Example 98]
8 | 643 nM |  | C[C@H](C(=O)O)[C@H](c1cccc(OCC2CC(Oc3ccccn3)C2)c1)C1CC1 (some centres unmarked) [Example 102]
9 | 304 nM |  | C[C@H](C(=O)O)[C@H](c1cccc(OCC2CC2c2ccccc2)c1)C1CC1 (some centres unmarked) [Example 68]
10 | 975 nM |  | C[C@H](C(=O)O)[C@H](c1cccc(OCC2CC(Oc3cccc(-c4ccccc4)c3)C2)c1)C1CC1 (single isomer, unassigned) [Example 120]
11 |  | 0.48 µM | CC(c1cc(F)ccc1F)N1CC(COc2cccc([C@@H](CC(=O)O)C3CC3)c2)C1 (some centres unmarked) [Example 57]
12 | 138 nM |  | COc1cc([C@@H]2C[C@H]2COc2cccc([C@H](C3CC3)[C@H](C)C(=O)O)c2)c(F)cn1 [Example 76]
13 | 78 nM |  | COc1ccc(F)c([C@H]2C[C@@H]2COc2cccc([C@H](C3CC3)[C@H](C)C(=O)O)c2)c1F [Example 142]
14 | 4440 nM |  | C[C@H](C(=O)O)[C@H](c1cccc(OC[C@H]2C[C@@H]2c2cccnc2)c1)C1CC1 [Example 147]
15 | 182 nM |  | CC(C)Oc1ccccc1OC1CC(COc2cccc([C@H](C3CC3)[C@H](C)C(=O)O)c2)C1 (single isomer, unassigned) [Example 127]
16 | 544 nM |  | COc1ccc([C@H]2C[C@@H]2COc2cccc([C@H](C3CC3)[C@H](C)C(=O)O)c2)c(F)c1 [Example 154]
17 | 218 nM |  | C[C@H](C(=O)O)[C@H](c1cccc(OCC2CCN(c3cc(C(F)(F)F)ccn3)CC2)c1)C1CC1 [Example 39]
18 | 118 nM |  | COc1cccc([C@H]2CC[C@@H](COc3cccc([C@H](C4CC4)[C@H](C)C(=O)O)c3)C2)c1 [Example 79, (2S,3R)-3-cyclopropyl-3-(3-(((1R,3 S)-3-(3-methoxyphenyl)cyclopentyl)methoxy)phenyl)-2-methylpropanoic acid]
19 | 35 nM |  | COc1cccc(C2CC(COc3cccc([C@H](C4CC4)[C@H](C)C(=O)O)c3)C2)c1 (some centres unmarked) [Example 85]
20 | 187 nM |  | COc1cccc(C[C@@H]2C[C@H]2COc2cccc([C@H](C3CC3)[C@H](C)C(=O)O)c2)c1 [Example 71]
21 | 20 nM |  | CC(c1cc(C(F)(F)F)ccc1C(F)(F)F)N1CCC(COc2cccc([C@H](C3CC3)[C@H](C)C(=O)O)c2)CC1 (some centres unmarked) [Example 35]

Row | EC50 [1] | EC50 [2] | SMILES
22 | 2670 nM |  | C[C@H](C(=O)O)[C@H](c1cccc(OCC2CC(Oc3ccn[nH]3)C2)c1)C1CC1 (single isomer, unassigned) [Example 99]
23 | 564 nM |  | COc1ccnc(OC2CC(COc3cccc([C@H](C4CC4)[C@H](C)C(=O)O)c3)C2)c1 (single isomer, unassigned) [Example 104]
24 | 45 nM |  | COc1ccc(F)c(OC2CC(COc3cccc([C@H](C4CC4)[C@H](C)C(=O)O)c3)C2)c1 (stereo partly drawn) [Example 81, (2S,3R)-3-cyclopropyl-3-(3-((3-(2-fluoro-5-methoxyphenoxy)cyclobutyl)methoxy)phenyl)-2-methylpropanoic acid]
25 | 156 nM |  | Cc1ccc(F)c(OC2CC(COc3cccc([C@H](C4CC4)[C@H](C)C(=O)O)c3)C2)c1 (single isomer, unassigned) [Example 118]
26 | 208 nM |  | C[C@H](C(=O)O)[C@H](c1cccc(OCC2CC(Oc3ccccc3)C2)c1)C1CC1 (stereo partly drawn) [Example 92, (2S,3R)-3-cyclopropyl-2-methyl-3-(3-((3-phenoxycyclobutyl)methoxy)phenyl)-propanoic acid]
27 | 1970 nM |  | C[C@H](C(=O)O)[C@H](c1cccc(OCC2CC(Oc3ccc4c(c3)COC4=O)C2)c1)C1CC1 (single isomer, unassigned) [Example 108]
28 | 119 nM |  | CCOc1cccc(OC2CC(COc3cccc([C@H](C4CC4)[C@H](C)C(=O)O)c3)C2)c1 (some centres unmarked) [Example 131]
29 | 56 nM |  | COc1ccc(F)c([C@H]2C[C@@H]2COc2cccc([C@H](C3CC3)[C@H](C)C(=O)O)c2)c1 [Example 74]
30 | 7240 nM |  | Cc1cc(OC2CC(COc3cccc([C@H](C4CC4)[C@H](C)C(=O)O)c3)C2)n(C)n1 (some centres unmarked) [Example 97]
31 | 225 nM |  | COc1cccc([C@H]2C[C@@H]2COc2cccc([C@H](C3CC3)[C@H](C)C(=O)O)c2)c1F [Example 140]
32 | 90 nM |  | C[C@H](C(=O)O)[C@H](c1cccc(OC[C@H]2C[C@@H]2c2cc(F)ccc2F)c1)C1CC1 [Example 151]
33 | 61 nM |  | COc1cc(C2CC(COc3cccc([C@H](C4CC4)[C@H](C)C(=O)O)c3)C2)ccn1 (single isomer, unassigned) [Example 89]
34 |  | 0.387 µM | O=C(O)C[C@H](c1cccc(OC2CCN(Cc3cccc(C(F)(F)F)c3)C2)c1)C1CC1 (some centres unmarked) [Example 45]
35 | 146 nM |  | COc1cccc(C[C@H]2C[C@@H]2COc2cccc([C@H](C3CC3)[C@H](C)C(=O)O)c2)c1 [Example 70]
36 | 107 nM |  | C[C@H](C(=O)O)[C@H](c1cccc(OCC2CC(Oc3c(F)cccc3F)C2)c1)C1CC1 (some centres unmarked) [Example 114]
37 | 74 nM |  | C[C@H](C(=O)O)[C@H](c1cccc(OC[C@H]2C[C@@H]2c2cccc(OC3CC3)c2)c1)C1CC1 [Example 138]
38 | 75 nM |  | COc1cccc(C2=CCC(COc3cccc([C@H](C4CC4)[C@H](C)C(=O)O)c3)C2)c1 (stereo partly drawn) [Example 78, (2 S,3R)-3-cyclopropyl-3-(3-((3-(3-methoxyphenyl)cyclopent-3-en-1 yl)methoxy)phenyl)-2-methylpropanoic acid]
39 | 597 nM |  | C[C@H](C(=O)O)[C@H](c1cccc(OCC2CC(Oc3cccc(O)c3)C2)c1)C1CC1 (single isomer, unassigned) [Example 122]
40 | 111 nM |  | C[C@H](C(=O)O)[C@H](c1cccc(OC[C@H]2C[C@@H]2c2cc(OC(F)(F)F)ccc2Cl)c1)C1CC1 [Example 146]
41 | 77 nM |  | COc1ccc(C)cc1OC1CC(COc2cccc([C@H](C3CC3)[C@H](C)C(=O)O)c2)C1 (single isomer, unassigned) [Example 116]
42 | 560 nM |  | Cc1c(OC2CC(COc3cccc([C@H](C4CC4)[C@H](C)C(=O)O)c3)C2)nn(C)c1C(F)(F)F (some centres unmarked) [Example 100]
